In data set [1] the test system is KKAy mice. Description: Blood sugar- and lipid-lowering activity in mice (test compound 0.005% in diet, 4 days). The data set is classed as in vivo. The settings on record: Mus musculus, feed or water, 96 h, 0.005% in powder diet, male KKAy mice. How it is done:
Blood sugar- and lipid-lowering activity in mice.
0.005% of a test compound was mixed with a powder diet (CE-2, produced by CLEA JAPAN), and KKAy mice (male, 8 to 10 weeks of age, 5 mice/group) were placed on the diet for 4 days, and allowed free access to water throughout the experiment. Blood samples were taken from the orbital veins and assayed for blood sugar by the glucose oxidase method and for plasma triglyceride by the enzyme method in which the produced glycerol was determined by means of Cleantech TG-S Kit (Yatron), respectively. The respective values are expressed in terms of rate of lowering (%) from the values of control group not receiving the test compound.

The nature of data set [2]: Acute oral toxicity (LD50) in rat. The settings on record: in vivo, administered orally. How it is done: With reference to the method of administration, they are normally usable orally for example in the form of tablets, capsules, powders, granules, etc., but can also be administered parenterally in the form of injectable solutions, suppositories, pellets, etc., as the case may be. In the case of their being employed as a therapeutic agent for diabetes, they can be normally administered orally in daily doses of 0.05 mg to 10 mg/kg or parenterally in daily doses of 0.01 mg to 10 mg/kg, per adult human, and in the case of their being utilized as a therapeutic agent for hyperlipemia, they can be normally given orally in daily doses of 0.05 mg to 10 mg/kg or parenterally in daily doses of 0.01 mg to 10 mg/kg, per adult human, whereby it is desirable to administer such quantities once daily or intermittently twice to four times weekly.

Setting [3] is: enzyme method (Cleantech TG-S Kit), read-out: Hypolipemic activity (rate of lowering of plasma triglyceride from control group).
Where [4] appears, read: glucose oxidase method, read-out: Hypoglycemic activity (rate of lowering of blood sugar from control group).

For eleven compounds, inhibition in vivo and LD50 results are on record in patent US4582839A, “2,4-thiazolidinediones” (Takeda Chemical Industries, Ltd., priority 1985, dated 1986).

The structures appear in SMILES notation. Where two headings read alike, the source gives them in different places.

`O=C1NC(=O)C(Cc2ccc(OCC(O)c3ccccn3)cc2)S1` (stereo not shown) [Example 8, 5-{4-[2-Hydroxy-2-(2-pyridyl)ethoxy]benzyl}-2,4-thiazolidinedione]: the results for the inhibition in vivo at 0.005 %, 0.005 % in diet in data set [1] (setting [3]) and in data set [1] (setting [4]) were 53% and 47%, respectively.

`Cc1cc(C)nc(C(O)COc2ccc(CC3SC(=O)NC3=O)cc2)c1` (stereo not shown) [Example 10, 5-{4-[2-(4,6-dimethyl-2-pyridyl)-2-hydroxyethoxy]benzyl}-2,4-thiazolidinedione]: the inhibition in vivo at 0.005 %, 0.005 % in diet in data set [1] (setting [3]) was 47%; in data set [1] (setting [4]), 40%.

`Cc1ccc(C(O)COc2ccc(CC3SC(=O)NC3=O)cc2)nc1` (stereo not shown) [Example 9, 5-{4-[2-Hydroxy-2-(5-methyl-2-pyridyl)ethoxy]benzyl}-2,4-thiazolidinedione]: the inhibition in vivo at 0.005 %, 0.005 % in diet in data set [1] (setting [3]) worked out at 19%; in data set [1] (setting [4]), 35%.

Take `CCc1ccc(C(CO)COc2ccc(CC3SC(=O)NC3=O)cc2)nc1` (stereo not shown) [Example 4, 5-{4-[2-(5-ethyl-2-pyridyl)-3-hydroxypropoxy]benzyl}-2,4-thiazolidinedione]: the figures for the inhibition in vivo at 0.005 %, 0.005 % in diet in data set [1] (setting [3]) and in data set [1] (setting [4]) were 38% and 45%, respectively.

For `Cc1cccnc1C(O)COc1ccc(CC2SC(=O)NC2=O)cc1` (stereo not shown) [Example 7, 5-{4-[2-Hydroxy-2-(3-methyl-2-pyridyl)ethoxy]benzyl}-2,4-thiazolidinedione], the inhibition in vivo at 0.005 %, 0.005 % in diet in data set [1] (setting [3]) is 58%; in data set [1] (setting [4]), 53%.

Usually LD50 stands for the dose expected to kill half of the subjects tested. The low end stands for a more toxic substance, the high end for a less toxic substance. In data set [2], `CCc1ccc(C(COC(C)=O)COc2ccc(CC3SC(=O)NC3=O)cc2)nc1` (stereo not shown) [Example 6, 5-{4-[3-acetoxy-2-(5-ethyl-2-pyridyl)propoxy]benzyl}-2,4-thiazolidinedione] returned a median lethal dose (LD50) of no less than 5000 mg/kg.

Take `Cc1cccnc1C(CO)COc1ccc(CC2SC(=O)NC2=O)cc1` (stereo not shown) [Example 2, 5-{4-[3-hydroxy-2-(3-methyl-2-pyridyl)propoxy]-benzyl}-2,4-thiazolidinedione]: the 50% lethal dose (LD50) in data set [2] is no less than 5000 mg/kg. Also, the inhibition in vivo at 0.005 %, 0.005 % in diet was 11% in data set [1] (setting [3]) and 22% in data set [1] (setting [4]).

`CC(=O)OC(COc1ccc(CC2SC(=O)NC2=O)cc1)c1cccc(C)n1` (stereo not shown) [Example 5, 5-{4-[2-acetoxy-2-(6-methyl-2-pyridyl)ethoxy]benzyl}-2,4-thiazolidinedione] displayed an LD50 in data set [2] of no less than 5000 mg/kg.

`Cc1cccc(C(O)COc2ccc(CC3SC(=O)NC3=O)cc2)n1` (stereo not shown) [Example 1, 5-{4-[2-hydroxy-2-(6-methyl-2-pyridyl)ethoxy]benzyl}-2,4-thiazolidinedione] returned an LD50 in data set [2] of no less than 5000 mg/kg. Moreover, the inhibition in vivo at 0.005 %, 0.005 % in diet in data set [1] (setting [3]) is 47%; in data set [1] (setting [4]) it was 45%.

For the compound `CCc1ccc(C(O)COc2ccc(CC3SC(=O)NC3=O)cc2)nc1` (stereo not shown) [Example 3, 5-{4-[2-(5-ethyl-2-pyridyl)-2-hydroxyethoxy]benzyl}-2,4-thiazolidinedione], the 50% lethal dose (LD50) in data set [2] is no less than 5000 mg/kg. The inhibition in vivo at 0.005 %, 0.005 % in diet came out at 35% in data set [1] (setting [3]) and 32% in data set [1] (setting [4]).

On to `CCc1ccc(C(CO)COc2ccc(CC3SC(=O)NC3=O)cc2)nc1` (stereo not shown) [5-{4-[2-(5-ethyl-2-pyridyl)-3-hydroxypropoxy]benzyl}-2,4-thiazolidinedione], for which, in data set [2], the 50% lethal dose (LD50) was no less than 5000 mg/kg.
